Assay results taken from patent US12612371B2, “Sigma-1 receptor ligands and therapeutic uses thereof” (UNIVERSITE DE STRASBOURG, priority 2019, dated 2026).

Target: T1, sigma 1 (h) (Homo sapiens, UniProt Q99720)
T1 construct: incubating Jurkat cell membranes (10-20 mg protein per tube) with [^3H](+) pentazocine; endogenous in cells; host or cells: Jurkat cell membranes
Test: σ1 binding assay ([3H](+)pentazocine displacement, Jurkat cell membranes)
Details: [3H](+)pentazocine 15 nM, 37° C., 2 hours; for inhibition at 0.01 µM: compound at 10 nM, read-out: Sigma-1 receptor % inhibition 10 nM; for inhibition at 0.1 µM: compound at 100 nM, read-out: Sigma-1 receptor % inhibition 100 nM
Description: The σ1 binding assays were performed according to Ganapathy et al (Ganapathy, M. E. et al. (1999), J. Pharmacol. Exp. Ther., 28:251-260). The σ1 binding assay was carried out by incubating Jurkat cell membranes (10-20 mg protein per tube) with [^3H](+) pentazocine a selective S1R ligand (15 nM) and a range of concentration of tested compounds, at 37° C. for 2 hours in 5 mM tris/HCl buffer (pH=7.4). The inhibition of [3H]-(+)-pentazocine binding assay is mainly used to determine the inhibition constant (Ki) of potential SIR ligands. These assays are performed with a single concentration of [^3H]-(+)-pentazocine at a concentration near its KD and increasing concentrations of non-radioactive ligands.

T1 sequence (Q99720 whole entry): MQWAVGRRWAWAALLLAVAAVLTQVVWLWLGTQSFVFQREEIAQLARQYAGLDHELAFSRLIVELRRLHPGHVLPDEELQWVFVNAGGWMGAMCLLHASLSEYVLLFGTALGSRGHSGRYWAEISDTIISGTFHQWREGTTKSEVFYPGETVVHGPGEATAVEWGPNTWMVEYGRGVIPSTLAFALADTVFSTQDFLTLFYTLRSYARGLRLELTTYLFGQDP

inhibition at 0.01 µM [%] | inhibition at 0.1 µM [%] | SMILES
15.6 | – | O=c1c(-c2ccoc2)ccnn1CCCCN1CCOCC1 [11p, 4-(furan-3-yl)-2-[4-(morpholin-4-yl)butyl]-2,3-dihydropyridazin-3-one]
– | 86 | Cc1cc(-c2ccccc2)c(=O)n(CCCCN(C)Cc2ccccc2)n1 [11v, 2-{4-[benzyl(methyl)amino]butyl}-6-methyl-4-phenyl-2,3-dihydropyridazin-3-one]
– | 53.9 | Cc1cc(-c2ccccc2)c(=O)n(CCCCN2CCCCCC2)n1 [11w, 2-[4-(azepan-1-yl)butyl]-6-methyl-4-phenyl-2,3-dihydropyridazin-3-one]
1.1 | – | O=c1c(CCc2ccccc2)ccnn1CCCCN1CCOCC1 [21a, 2-[4-(morpholin-4-yl)butyl]-4-(2-phenylethyl)-2,3-dihydropyridazin-3-one]
15.8 | – | O=c1c(N2CCCCC2)ccnn1CCCCN1CCOCC1 [25a, 2-(4-morpholinobutyl)-4-(piperidin-1-yl)pyridazin-3(2H)-one]
12.3 | – | CN(Cc1ccccc1)CC(O)CCn1nccc(-c2ccccc2)c1=O (centres unmarked) [33a, 2-(4-(benzyl(methyl)amino)-3-hydroxybutyl)-4-phenylpyridazin-3(2H)-one]
1.4 | – | Cc1ncc(-c2ccccc2)c(=O)n1CCCCN1CCOCC1 [40a, 2-methyl-3-(4-morpholinobutyl)-5-phenylpyrimidin-4(3H)-one]
1.4 | – | O=c1c(-c2ccccc2)cncn1CCCCN1CCOCC1 [40b, 3-[4-(morpholin-4-yl)butyl]-5-phenyl-3,4-dihydropyrimidin-4-one]
3 | – | O=c1c(-c2ccccc2)cccn1CCCCN1CCOCC1 [41a, 1-[4-(morpholin-4-yl)butyl]-3-phenyl-1,2-dihydropyridin-2-one]
2.1 | – | O=c1cc(-c2ccccc2)cnn1CCCCN1CCOCC1 [compound 14, 2-(4-morpholinobutyl)-5-phenylpyridazin-3(2H)-one]

SMILES | inhibition at 0.01 µM [%] | inhibition at 0.1 µM [%]
O=c1c(-c2ccccc2)ccnn1CCCCN1C2CCC1CC(O)C2 (centres unmarked) [compound 16, 2-(4-(3-hydroxy-8-azabicyclo[3.2.1]octan-8-yl)butyl)-4-phenylpyridazin-3(2H)-one] | 4.8 | –
